Reference: ChEMBL document CHEMBL3885881, “DrugMatrix”

Species: Rattus norvegicus
Experiment: DrugMatrix - Regimen: Daily Repeat
Assay type: toxicity, organism-based, Sprague-Dawley
Set-up: regimen Daily Repeat, gender Male, age 6-8 weeks
Conditions: in vivo, po, route oral GAVAGE, vehicle 100 % WATER; for ABSOLUTE BASOPHIL / ABSOLUTE EOSINOPHIL / ABSOLUTE LYMPHOCYTE / ABSOLUTE MONOCYTE / ABSOLUTE SEGMENTED NEUTROPHIL / BASOPHIL / EOSINOPHIL / ERYTHROCYTE COUNT / HEMATOCRIT / HEMOGLOBIN / LEUKOCYTE COUNT / LYMPHOCYTE / MEAN CORPUSCULAR HEMOGLOBIN / MEAN CORPUSCULAR HEMOGLOBIN CONCENTRATION / MEAN CORPUSCULAR VOLUME / MONOCYTE / NEUTROPHIL / NUCLEATED RED BLOOD CELLS / PLATELET COUNT: tissue Blood; for ALANINE AMINOTRANSFERASE / ALKALINE PHOSPHATASE / ASPARTATE AMINOTRANSFERASE / BLOOD UREA NITROGEN / CARBON DIOXIDE / CHLORIDE / CHOLESTEROL / CREATINE PHOSPHOKINASE / CREATININE / GLUCOSE / LACTATE DEHYDROGENASE / LIPASE / PHOSPHORUS / POTASSIUM / SODIUM / TOTAL BILIRUBIN / TOTAL PROTEIN / URIC ACID: tissue Plasma
[1] = 22 mg/kg, 120 h, dose level Low, time 5 day
[2] = 320 mg/kg, 72 h, dose level High, time 3 day
[3] = 320 mg/kg, 120 h, dose level High, time 5 day

SMILES: COc1ccc(C(CN(C)C)C2(O)CCCCC2)cc1 (stereo unspecified) [VENLAFAXINE]
- ABSOLUTE BASOPHIL [1]: 0 CELLS/uL
- ABSOLUTE EOSINOPHIL [1]: 0 CELLS/uL
- ABSOLUTE LYMPHOCYTE [1]: 7105.33 CELLS/uL
- ABSOLUTE MONOCYTE [1]: 102.33 CELLS/uL
- ABSOLUTE SEGMENTED NEUTROPHIL [1]: 692.33 CELLS/uL
- BASOPHIL [1]: 0%
- EOSINOPHIL [1]: 0%
- ERYTHROCYTE COUNT [1]: 5.16 x10E6/uL
- HEMATOCRIT [1]: 32.4%
- HEMOGLOBIN [1]: 12.8 G/DL
- LEUKOCYTE COUNT [1]: 7.9 x10E3/uL
- LYMPHOCYTE [1]: 90%
- MEAN CORPUSCULAR HEMOGLOBIN [1]: 24.83 pg
- MEAN CORPUSCULAR HEMOGLOBIN CONCENTRATION [1]: 39.5 G/DL
- MEAN CORPUSCULAR VOLUME [1]: 62.73 fL
- MONOCYTE [1]: 1.33%
- NEUTROPHIL [1]: 8.67%
- NUCLEATED RED BLOOD CELLS [1]: 0 /100WBC
- PLATELET COUNT [1]: 1242 x10E3/uL
- ALANINE AMINOTRANSFERASE [1]: 58.67 u/L
- ALKALINE PHOSPHATASE [1]: 353 u/L
- ASPARTATE AMINOTRANSFERASE [1]: 97.67 u/L
- BLOOD UREA NITROGEN [1]: 15 mg/dL
- CARBON DIOXIDE [1]: 29 mmol/L
- CHLORIDE [1]: 106 MEQ/L
- CHOLESTEROL [1]: 81 mg/dL
- CREATINE PHOSPHOKINASE [1]: 155 u/L
- CREATININE [1]: 0.18 mg/dL
- GLUCOSE [1]: 132.33 mg/dL
- LACTATE DEHYDROGENASE [1]: 132 u/L
- LIPASE [1]: 9.67 u/L
- PHOSPHORUS [1]: 11.27 mg/dL
- POTASSIUM [1]: 6.7 MEQ/L
- SODIUM [1]: 152.17 MEQ/L
- TOTAL BILIRUBIN [1]: 0.17 mg/dL
- TOTAL PROTEIN [1]: 6.63 G/DL
- URIC ACID [1]: 1.17 mg/dL
- ABSOLUTE BASOPHIL [2]: 0 CELLS/uL
- ABSOLUTE EOSINOPHIL [2]: 0 CELLS/uL
- ABSOLUTE LYMPHOCYTE [2]: 16169.33 CELLS/uL
- ABSOLUTE MONOCYTE [2]: 308 CELLS/uL
- ABSOLUTE SEGMENTED NEUTROPHIL [2]: 1489.33 CELLS/uL
- BASOPHIL [2]: 0%
- EOSINOPHIL [2]: 0%
- ERYTHROCYTE COUNT [2]: 5.59 x10E6/uL
- HEMATOCRIT [2]: 35.1%
- HEMOGLOBIN [2]: 13.63 G/DL
- LEUKOCYTE COUNT [2]: 17.97 x10E3/uL
- LYMPHOCYTE [2]: 89.67%
- MEAN CORPUSCULAR HEMOGLOBIN [2]: 24.4 pg
- MEAN CORPUSCULAR HEMOGLOBIN CONCENTRATION [2]: 38.83 G/DL
- MEAN CORPUSCULAR VOLUME [2]: 62.7 fL
- MONOCYTE [2]: 1.67%
- NEUTROPHIL [2]: 8.67%
- NUCLEATED RED BLOOD CELLS [2]: 0 /100WBC
- PLATELET COUNT [2]: 1276.67 x10E3/uL
- ALANINE AMINOTRANSFERASE [2]: 53.67 u/L
- ALKALINE PHOSPHATASE [2]: 355.33 u/L
- ASPARTATE AMINOTRANSFERASE [2]: 109 u/L
- BLOOD UREA NITROGEN [2]: 14.33 mg/dL
- CARBON DIOXIDE [2]: 22.33 mmol/L
- CHLORIDE [2]: 104 MEQ/L
- CHOLESTEROL [2]: 67.67 mg/dL
- CREATINE PHOSPHOKINASE [2]: 922.67 u/L
- CREATININE [2]: 0.19 mg/dL
- GLUCOSE [2]: 204 mg/dL
- LACTATE DEHYDROGENASE [2]: 452.67 u/L
- LIPASE [2]: 10 u/L
- PHOSPHORUS [2]: 13.37 mg/dL
- POTASSIUM [2]: 5.82 MEQ/L
- SODIUM [2]: 147.33 MEQ/L
- TOTAL BILIRUBIN [2]: 0.17 mg/dL
- TOTAL PROTEIN [2]: 5.87 G/DL
- URIC ACID [2]: 1.9 mg/dL
- ABSOLUTE BASOPHIL [3]: 0 CELLS/uL
- ABSOLUTE EOSINOPHIL [3]: 0 CELLS/uL
- ABSOLUTE LYMPHOCYTE [3]: 15088.33 CELLS/uL
- ABSOLUTE MONOCYTE [3]: 152.33 CELLS/uL
- ABSOLUTE SEGMENTED NEUTROPHIL [3]: 1792.67 CELLS/uL
- BASOPHIL [3]: 0%
- EOSINOPHIL [3]: 0%
- ERYTHROCYTE COUNT [3]: 5.64 x10E6/uL
- HEMATOCRIT [3]: 34.3%
- HEMOGLOBIN [3]: 13.5 G/DL
- LEUKOCYTE COUNT [3]: 17.03 x10E3/uL
- LYMPHOCYTE [3]: 88.33%
- MEAN CORPUSCULAR HEMOGLOBIN [3]: 23.93 pg
- MEAN CORPUSCULAR HEMOGLOBIN CONCENTRATION [3]: 39.37 G/DL
- MEAN CORPUSCULAR VOLUME [3]: 60.83 fL
- MONOCYTE [3]: 1%
- NEUTROPHIL [3]: 10.67%
- NUCLEATED RED BLOOD CELLS [3]: 0 /100WBC
- PLATELET COUNT [3]: 1189 x10E3/uL
- ALANINE AMINOTRANSFERASE [3]: 58.33 u/L
- ALKALINE PHOSPHATASE [3]: 429.33 u/L
- ASPARTATE AMINOTRANSFERASE [3]: 79.33 u/L
- BLOOD UREA NITROGEN [3]: 16.67 mg/dL
- CARBON DIOXIDE [3]: 25 mmol/L
- CHLORIDE [3]: 106 MEQ/L
- CHOLESTEROL [3]: 72.33 mg/dL
- CREATINE PHOSPHOKINASE [3]: 133.33 u/L
- CREATININE [3]: 0.2 mg/dL
- GLUCOSE [3]: 162.33 mg/dL
- LACTATE DEHYDROGENASE [3]: 100 u/L
- LIPASE [3]: 10 u/L
- PHOSPHORUS [3]: 13.67 mg/dL
- POTASSIUM [3]: 6.24 MEQ/L
- SODIUM [3]: 150.03 MEQ/L
- TOTAL BILIRUBIN [3]: 0.13 mg/dL
- TOTAL PROTEIN [3]: 5.73 G/DL
- URIC ACID [3]: 1.4 mg/dL
